Reference: US7332617B2, “Process for the preparation of docetaxel trihydrate” (Shanghai Desano Chemical Pharmaceutical Co., Ltd., priority 2003, dated 2008)

Legend:
[1] = stability test at 40° C., relative humidity 75%, 12 months; format: physicochemical; conditions: relative humidity of 75%
Procedure: The experiment conditions for testing the stability are: under temperature of 40° C., at relative humidity of 75%, 12 months. Within this period, the trihydrate compound remain no change.

[2] = according to Chinese patent 95193984.X; cited from earlier work
[3] = exposure in light (purity); format: physicochemical; conditions: exposed in light for 10 hours
Source text: It is sensitive to light in some way. Shortening of the filtration time decreased the exposure time, thus the reduction of purity was avoided.

[4] = stability in high temperature; format: physicochemical
Procedure: 2. Lower operation temperature (below 40° C.). As Docetaxel's stability is bad in high temperature, this will help to avoid any purity drop of Docetaxel in purification process.

[5] = test system: transferring breast cancer; conditions: cited from earlier work

Row | stability [1] | purity on exposure in light [3] | stability in high temperature [4] | Compound | stability compared with anhydrous compound [2] | CR (Complete Resultful) ([5]; one research report) | total chemotherapy efficiency of single Docetaxel ([5]; phase II clinical trial, patients who have received chemotherapy, generally 100 mgs/m^2, infusion, once per 3 weeks)
1 | no change | – | – | CC(=O)O[C@@]12CO[C@@H]1C[C@H](O)[C@@]1(C)C(=O)[C@H](O)C3=C(C)[C@@H](OC(=O)[C@H](O)[C@@H](NC(=O)OC(C)(C)C)c4ccccc4)C[C@@](O)([C@@H](OC(=O)c4ccccc4)[C@H]21)C3(C)C [Docetaxel trihydrate, (2′R,3′S)-N-carboxy-3-phenylisoserine, N-tert-butyl ester, 13-ester with 5β,20-epoxy-1β,2α,4α,7β,10β,13α-hexahydroxytax-11-en-9-one 4-acetate-2-benzoate, trihydrate] | more stable than its anhydrous compound | – | –
2 | – | purity dropped | bad | CC(=O)O[C@@]12CO[C@@H]1C[C@H](O)[C@@]1(C)C(=O)[C@H](O)C3=C(C)[C@@H](OC(=O)[C@H](O)[C@@H](NC(=O)OC(C)(C)C)c4ccccc4)C[C@@](O)([C@@H](OC(=O)c4ccccc4)[C@H]21)C3(C)C [Docetaxel] | – | 4% | 47%
